Laboratory results from patent US20250360114A1, “INTRAVENOUS RIFABUTIN FORMULATION AND METHODS OF MAKING” (BIOVERSYS AG, priority 2024, published 2025).

Legend:
[1] = Solubility of rifabutin in alkanes; assay type: physicochemical
[2] = Sub-visible particle test (10 mg/mL in 0.9% saline, particle counter); assay type: physicochemical
Protocol: As these particle forming impurities are not described in the current pharmacopeial analytical methods, a new testing method was developed which is described in the methods below. In brief, rifabutin powder is dissolved in a mixture of dimethyl isosorbide, acetic acid and water. Subsequently, the obtained solution is diluted in 0.9% saline to a final concentration of 10 mg/mL and sub-visible particles are determined. The established limits for this test are: (1) not more than 12.5 particles/mL greater than 10 μm in diameter, and (2) not more than 3 particles/mL greater than 25 μm in diameter. Considering that current concentrations used for the intravenous administration of rifabutin are well below 10 mg/mL, these limits are much more stringent than the current pharmacopeial limits.
About 400 mg of rifabutin is dissolved in 2 mL of a mixture of isosorbide dimethyl ether (DMI) and acetic acid in water (40% DMI, 2.4% acetic acid). The obtained solution is filtered through a 0.2 μm Nylon filter and […] of 0.9% saline solution to a final concentration of 10 mg/mL. Solutions are stirred for 15 min on a roller mixer to allow sub-visible particle formation.
Sub-visible particles are determined using a suitable instrument (e.g. PAMAS SVSS particle counter). Particle numbers in the 10 mg/mL solution should be not more than 12.5 particles/mL greater 10 μm and not more than […] greater 25 μm to pass the test.

[3] = Method 1, Example 1 (pentane Soxhlet extraction)
[4] = Method 2, Example 2 (pentane / silica gel columns, acetone elution)
[5] = Method 3, Example 3 (dissolved in n-heptane 50° C., filtered)

Row | SMILES | Solubility [1] | Sub-visible particles ≥10 μm [2, 3] [particles/mL] | Sub-visible particles ≥25 μm [2, 3] [particles/mL] | Sub-visible particles ≥10 μm [2, 4] [particles/mL] | Sub-visible particles ≥25 μm [2, 4] [particles/mL] | Sub-visible particles ≥10 μm [2, 5] [particles/mL] | Sub-visible particles ≥25 μm [2, 5] [particles/mL]
1 | CO[C@H]1/C=C/O[C@@]2(C)Oc3c(C)c(O)c4c(c3C2=O)C2=NC3(CCN(CC(C)C)CC3)NC2=C(NC(=O)/C(C)=C\C=C\[C@H](C)[C@H](O)[C@@H](C)[C@@H](O)[C@@H](C)[C@H](OC(C)=O)[C@@H]1C)C4=O [Rifabutin] | low solubility | – | – | – | – | – | –
2 | CO[C@H]1/C=C/O[C@@]2(C)Oc3c(C)c(O)c4c(c3C2=O)C2=NC3(CCN(CC(C)C)CC3)NC2=C(NC(=O)/C(C)=C\C=C\[C@H](C)[C@H](O)[C@@H](C)[C@@H](O)[C@@H](C)[C@H](OC(C)=O)[C@@H]1C)C4=O [original, rifabutin] | – | 138.3 | 16.3 | 1804.0 | 98.7 | 1804.0 | 98.7
3 | CO[C@H]1/C=C/O[C@@]2(C)Oc3c(C)c(O)c4c(c3C2=O)C2=NC3(CCN(CC(C)C)CC3)NC2=C(NC(=O)/C(C)=C\C=C\[C@H](C)[C@H](O)[C@@H](C)[C@@H](O)[C@@H](C)[C@H](OC(C)=O)[C@@H]1C)C4=O [purified, rifabutin] | – | 8.4 | 0.4 | 2.6 | 0.0 | 7.1 | 0.2
